Test results from patent publication US20260207769A1, “ANTIBODY DRUG CONJUGATES” (YALE UNIVERSITY, priority 2022, published 2026).

Key:
DLD-1 cells = assay: treatment duration, single dose of SN38 or 3E10-SN38 conjugates, cancer cell growth (Example 7); format: cell-based; details: effects dose dependent
From the text: FIGS. 14, 15, and 16 show the cell viability of WT and BRCA2^−/− DLD-1 cells after treatment with SN38, cWT-SN38 or cD31N-SN38 at 3, 5, and 7 days post-treatment, respectively.
FIGS. 14A, 15A, and 16A show the viability of WT DLD-1 cells and FIGS. 14B, 15B, and 16B show the viability of BRCA2^−/−- DLD-1 cells. The calculated EC50 values are provided.
FIGS. 17 and 18 show the effects of shorter and longer term treatment on cell viability in WT DLD-1 cells (FIGS. 17A and 17B) and BRCA2^−/−- DLD-1 cells (FIGS. 18A and 18B) at day 7 after treatment with SN38 or cD31N-SN38 conjugate. Shorter term treatment was defined as a 24 hour treatment followed by a change to fresh treatment-free media. Longer term treatment was defined as 7 days of treatment without a change of medium. The calculated EC50 values are provided.

[1] = tested on: PEO-1 (BRCA2^−/−) ovarian adenocarcinoma cells; assay: Cell viability of PEO-1 cells; format: cell-based; details: PEO-1 (BRCA2-/-) cells, at 7 days
From the text: (§1) Cancer cell lines were acquired from ATCC and cultured according to well known methods in the art. Treatment with cytotoxic agents, antibodies, or ADCs refers to the addition of the cytotoxic agent, antibody or ADC (i.e., DM1 or cD31N-DM1, etc.) to the culture media for a set duration.
(§2) The effects of longer-term treatment with SN38 and cD31N-SN38 on PEO-4 (WT) and PEO-1 (BRCA2^−/−) ovarian cancer cells were investigated.

[2] = tested on: DNA damage response proteins such as γH2AX, p-ATM, and p-ATR; assay: Western blot of DNA damage response proteins in WT DLD-1 cells; format: cell-based, human
Method: (§3) SN38 causes DNA damage via inhibition of topoisomerase I. Therefore, DNA damage was measured in both wild-type (WT) and BRCA2 deficient (BRCA2′) DLD-1 cells by induction of γH2AX after treatment with one of the following: no treatment (NT), SN38 alone (SN38), wild-type 3E10 antibody alone (cWT), 3E10-cD31N antibody alone, cWT-SN38 conjugate, or cD31N-SN38 conjugate. After treatment with 100 nM of the antibody or conjugate for 48 hours, the DLD-1 cells were collected for Western blot analysis to measure 7H2AX protein levels. […] These findings were consistent in both WT and BRCA2^−/− DLD-1 cells, but γH2AX protein levels were elevated across all groups in BRCA2^−/− DLD-1 cells.
(§4) DNA damage caused by SN38 or 3E10-SN38 conjugates in WT and BRCA2^−/− DLD-1 cells was assessed by measuring the levels of proteins involved in DNA damage response, p-ATM, p-ATR, pBRCA1, Topoisomerase 1 (TOPO-1), pChk2, pChk1, γH2AX and H2AX. DLD-1 cells were treated with 100 nM of SN38, cWT antibody, cD31N antibody, cWT-SN38 conjugate, or cD31N-SN38 conjugate and collected for Western blot after 24 (FIG. 21A) and 48 hours (FIG. 21B). No treatment (NT) was used as control.

[3] = tested on: DNA damage response proteins; assay: Western blot of DNA damage response proteins in PEO-1 cells; format: cell-based; details: 100 nM, 24 and 48 hours
Method: (§5) PEO-4 (WT) and PEO-1 (BRCA2^−/−) ovarian cancer cells were treated with 100 nM of SN38, cD31N or cD31N-SN38 and collected at 24 and 48 hours of treatment for Western blot analysis to measure specific protein markers of DNA damage response as previously described.

[4] = tested on: DNA damage response proteins such as γH2AX, p-ATM, and p-ATR; assay: Western blot of DNA damage response proteins in BRCA2-/- DLD-1 cells; format: cell-based, human
Method: as §3, §4

[5] = tested on: DNA damage response proteins such as γH2AX, p-ATM, and p-ATR; assay: Western blot of DNA damage response proteins in IDH1mut HCT116 cells; format: cell-based; details: IDH1mut HCT116, 100 nM, 24 hours
Method: DNA damage induced by SN38 or the humanized 3E10-SN38 conjugates in WT and IDH1^mut HCT116 cells was assessed by measuring the levels of proteins involved in DNA damage response, p-ATM, p-ATR, pChk2, pChk1, 7H2AX and H2AX. HCT116 cells were treated with 100 nM of SN38, V66 antibody, or V66-SN38 conjugate and collected for Western blot after 24 hours and the results are shown in FIG. 26. No treatment (NT) was used as control.

WT DLD-1 cells = assay: Shorter versus longer term treatment, viability of WT DLD-1 cells; format: cell-based, human
Method: (§6) To determine whether the EC50 values would change based on the duration of the treatment with 3E10-SN38 conjugates, WT or BRCA2^−/− DLD-1 cells were treated with different concentrations of SN38, cD31N antibody, or cD31N-SN38 conjugate and cell viability, and the EC50 values were tracked over time. Shorter term treatment was defined as a 24 hour treatment followed by a change to fresh treatment-free medium. Longer term treatment was defined as treatment without a change of medium for 7 days (e.g., the treatment is not removed).

HCT116- IDH1^mut cells = assay: Cell viability of HCT116-IDH1mut cells; format: cell-based
Method: WT and mutant IDH1 (IDH1^mut) HCT116 cells were treated with different concentrations of SN38, cD31N antibody, or cD31N-SN38 conjugate. The effects of 3E10-cD31N-SN38 conjugate treatment on HCT116 WT and HCT116IDH1^mut were investigated.

[6] = tested on: DNA damage response proteins; assay: Western blot of DNA damage response proteins in PEO-4 cells; format: cell-based; details: 100 nM, 24 and 48 hours
Method: as §5

BRCA2^−/− DLD-1 cells = assay: Shorter versus longer term treatment, viability of BRCA2-/- DLD-1 cells; format: cell-based, human
Method: as §6

[7] = tested on: PEO-4 (WT) ovarian adenocarcinoma cells; assay: Cell viability of PEO-4 cells; format: cell-based; details: PEO-4 (WT) cells, at 7 days
From the text: as §1, §2

## CCc1c2c(nc3ccc(O)cc13)-c1cc3c(c(=O)n1C2)COC(=O)[C@]3(O)CC [SN38, SN-38]
DLD-1 cells
  long-term effects on cancer cell growth: can have long-term effects on cancer cell growth
[1]
  cell viability: reduced cell viability in a concentration-dependent manner resulting in low EC50 values
[2]; WT DLD-1, 100 nM, 24 and 48 hour time points
  protein levels of DNA damage response proteins: increased the protein levels of DNA damage response proteins such as γH2AX, p-ATM, and p-ATR
[2]; WT DLD-1, 100 nM, 24 and 48 hours
  TOPO-1 levels: reduced TOPO-1 levels
[2]; WT DLD-1, 100 nM, 24 hours (Example 10)
  γH2AX induction (Western blot): 7H2AX was induced
[2]; WT DLD-1, 100 nM, 48 hours (Example 10)
  γH2AX detection (Western blot): 7H2AX was detected
[2]; WT DLD-1 cells, 100 nM, 48 hours (Example 5)
  γH2AX protein levels (Western blot): induced the highest levels of γH2AX expression
[3]
  protein expression of DNA damage response proteins: protein expression of DNA damage response proteins was increased
[4]; BRCA2-/- DLD-1, 100 nM, 24 and 48 hour time points
  protein levels of DNA damage response proteins: increased the protein levels of DNA damage response proteins such as γH2AX, p-ATM, and p-ATR
[4]; BRCA2-/- DLD-1, 100 nM, 24 and 48 hours
  TOPO-1 levels: reduced TOPO-1 levels
[4]; BRCA2-/- DLD-1, 100 nM, 24 hours (Example 10)
  γH2AX induction (Western blot): 7H2AX was induced
[4]; BRCA2-/- DLD-1 cells, 100 nM, 48 hours (Example 5)
  γH2AX protein levels (Western blot): induced the highest levels of γH2AX expression
[5]
  protein levels of DNA damage response proteins: increased the protein levels of DNA damage response proteins such as γH2AX, p-ATM, and p-ATR
WT DLD-1 cells; WT DLD-1, day 7 of longer term treatment
  cell viability: cell viability was reduced
WT DLD-1 cells; WT DLD-1, 7 days without change of medium vs 24 hour treatment
  cell viability and EC50, longer term versus shorter term treatment: lower cell viability and lower EC50 values than with shorter term treatment
HCT116- IDH1^mut cells; 5 days of treatment
  cell viability: substantial loss in cell viability
HCT116- IDH1^mut cells; 7 days of treatment
  cell viability: substantial loss in cell viability
[6]
  protein expression of DNA damage response proteins: protein expression of DNA damage response proteins was increased
BRCA2^−/− DLD-1 cells; BRCA2-/- DLD-1, day 7 of longer term treatment
  cell viability: cell viability was reduced
BRCA2^−/− DLD-1 cells; BRCA2-/- DLD-1, 7 days without change of medium vs 24 hour treatment
  cell viability and EC50, longer term versus shorter term treatment: lower cell viability and lower EC50 values than with shorter term treatment
[7]
  cell viability: reduced cell viability in a concentration-dependent manner resulting in low EC50 values
